{
  "source": "ChEMBL document CHEMBL1201862",
  "about": "“PubChem BioAssay data set” (2004)",
  "key": {"[1]": {"assay": "Vero E6 cell cytotoxicity, dose response, cytotoxicity control for non-replicating M. tuberculosis project, secondary assay (AID 492998)", "format": "functional, VeroE6", "details": "Vero C1008"}, "cells": {"assay": "cells", "format": "functional"}, "[2]": {"assay": "THP-1 cell cytotoxicity, dose response, cytotoxicity control for non-replicating M. tuberculosis project (AID 489025)", "format": "functional"}, "[3]": {"target": "T1, Ubiquitin-conjugating enzyme E2 N (Homo sapiens, UniProt P61088)", "T1 sequence (P61088 whole entry)": "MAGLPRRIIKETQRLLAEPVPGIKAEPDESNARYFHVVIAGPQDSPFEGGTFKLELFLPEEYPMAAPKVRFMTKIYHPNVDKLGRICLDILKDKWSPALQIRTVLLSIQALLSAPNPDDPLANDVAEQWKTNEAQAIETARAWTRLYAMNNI", "format": "functional"}, "[4]": {"target": "T2, High affinity choline transporter 1 (Homo sapiens, UniProt Q9GZV3)", "T2 sequence (Q9GZV3 whole entry)": "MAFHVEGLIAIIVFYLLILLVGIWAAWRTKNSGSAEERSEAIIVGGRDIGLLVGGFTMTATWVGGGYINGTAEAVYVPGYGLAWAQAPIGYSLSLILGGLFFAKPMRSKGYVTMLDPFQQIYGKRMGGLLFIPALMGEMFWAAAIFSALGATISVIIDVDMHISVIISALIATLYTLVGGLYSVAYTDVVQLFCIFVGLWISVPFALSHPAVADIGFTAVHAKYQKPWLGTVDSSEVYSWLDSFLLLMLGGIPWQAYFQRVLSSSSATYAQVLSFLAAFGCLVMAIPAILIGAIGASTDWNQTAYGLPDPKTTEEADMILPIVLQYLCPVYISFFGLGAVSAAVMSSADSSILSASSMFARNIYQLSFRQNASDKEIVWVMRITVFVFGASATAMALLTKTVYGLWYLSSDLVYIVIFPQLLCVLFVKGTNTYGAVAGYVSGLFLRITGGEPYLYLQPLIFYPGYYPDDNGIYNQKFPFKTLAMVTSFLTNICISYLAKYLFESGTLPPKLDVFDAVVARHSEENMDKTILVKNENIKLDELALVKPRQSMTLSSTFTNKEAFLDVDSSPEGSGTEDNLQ", "assay": "CHT inhibitors, dose response, cell-based, 5-point CRC, membrane potential dye (AID 504840)", "format": "functional"}, "Bcl-2-related protein A1": {"target": "Bcl-2-related protein A1 (Mus musculus, UniProt Q07440)", "sequence (Q07440 whole entry)": "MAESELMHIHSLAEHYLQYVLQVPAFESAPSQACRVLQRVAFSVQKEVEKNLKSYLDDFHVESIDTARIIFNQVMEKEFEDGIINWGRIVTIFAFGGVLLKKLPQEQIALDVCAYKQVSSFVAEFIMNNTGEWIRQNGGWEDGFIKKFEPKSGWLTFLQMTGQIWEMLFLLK", "format": "functional"}, "[5]": {"target": "T1, Ubiquitin-conjugating enzyme E2 N", "format": "functional", "remark": "listed apart in the source"}, "[6]": {"target": "Voltage-dependent T-type calcium channel subunit alpha-1H (Homo sapiens, UniProt O95180)", "sequence (O95180 whole entry)": "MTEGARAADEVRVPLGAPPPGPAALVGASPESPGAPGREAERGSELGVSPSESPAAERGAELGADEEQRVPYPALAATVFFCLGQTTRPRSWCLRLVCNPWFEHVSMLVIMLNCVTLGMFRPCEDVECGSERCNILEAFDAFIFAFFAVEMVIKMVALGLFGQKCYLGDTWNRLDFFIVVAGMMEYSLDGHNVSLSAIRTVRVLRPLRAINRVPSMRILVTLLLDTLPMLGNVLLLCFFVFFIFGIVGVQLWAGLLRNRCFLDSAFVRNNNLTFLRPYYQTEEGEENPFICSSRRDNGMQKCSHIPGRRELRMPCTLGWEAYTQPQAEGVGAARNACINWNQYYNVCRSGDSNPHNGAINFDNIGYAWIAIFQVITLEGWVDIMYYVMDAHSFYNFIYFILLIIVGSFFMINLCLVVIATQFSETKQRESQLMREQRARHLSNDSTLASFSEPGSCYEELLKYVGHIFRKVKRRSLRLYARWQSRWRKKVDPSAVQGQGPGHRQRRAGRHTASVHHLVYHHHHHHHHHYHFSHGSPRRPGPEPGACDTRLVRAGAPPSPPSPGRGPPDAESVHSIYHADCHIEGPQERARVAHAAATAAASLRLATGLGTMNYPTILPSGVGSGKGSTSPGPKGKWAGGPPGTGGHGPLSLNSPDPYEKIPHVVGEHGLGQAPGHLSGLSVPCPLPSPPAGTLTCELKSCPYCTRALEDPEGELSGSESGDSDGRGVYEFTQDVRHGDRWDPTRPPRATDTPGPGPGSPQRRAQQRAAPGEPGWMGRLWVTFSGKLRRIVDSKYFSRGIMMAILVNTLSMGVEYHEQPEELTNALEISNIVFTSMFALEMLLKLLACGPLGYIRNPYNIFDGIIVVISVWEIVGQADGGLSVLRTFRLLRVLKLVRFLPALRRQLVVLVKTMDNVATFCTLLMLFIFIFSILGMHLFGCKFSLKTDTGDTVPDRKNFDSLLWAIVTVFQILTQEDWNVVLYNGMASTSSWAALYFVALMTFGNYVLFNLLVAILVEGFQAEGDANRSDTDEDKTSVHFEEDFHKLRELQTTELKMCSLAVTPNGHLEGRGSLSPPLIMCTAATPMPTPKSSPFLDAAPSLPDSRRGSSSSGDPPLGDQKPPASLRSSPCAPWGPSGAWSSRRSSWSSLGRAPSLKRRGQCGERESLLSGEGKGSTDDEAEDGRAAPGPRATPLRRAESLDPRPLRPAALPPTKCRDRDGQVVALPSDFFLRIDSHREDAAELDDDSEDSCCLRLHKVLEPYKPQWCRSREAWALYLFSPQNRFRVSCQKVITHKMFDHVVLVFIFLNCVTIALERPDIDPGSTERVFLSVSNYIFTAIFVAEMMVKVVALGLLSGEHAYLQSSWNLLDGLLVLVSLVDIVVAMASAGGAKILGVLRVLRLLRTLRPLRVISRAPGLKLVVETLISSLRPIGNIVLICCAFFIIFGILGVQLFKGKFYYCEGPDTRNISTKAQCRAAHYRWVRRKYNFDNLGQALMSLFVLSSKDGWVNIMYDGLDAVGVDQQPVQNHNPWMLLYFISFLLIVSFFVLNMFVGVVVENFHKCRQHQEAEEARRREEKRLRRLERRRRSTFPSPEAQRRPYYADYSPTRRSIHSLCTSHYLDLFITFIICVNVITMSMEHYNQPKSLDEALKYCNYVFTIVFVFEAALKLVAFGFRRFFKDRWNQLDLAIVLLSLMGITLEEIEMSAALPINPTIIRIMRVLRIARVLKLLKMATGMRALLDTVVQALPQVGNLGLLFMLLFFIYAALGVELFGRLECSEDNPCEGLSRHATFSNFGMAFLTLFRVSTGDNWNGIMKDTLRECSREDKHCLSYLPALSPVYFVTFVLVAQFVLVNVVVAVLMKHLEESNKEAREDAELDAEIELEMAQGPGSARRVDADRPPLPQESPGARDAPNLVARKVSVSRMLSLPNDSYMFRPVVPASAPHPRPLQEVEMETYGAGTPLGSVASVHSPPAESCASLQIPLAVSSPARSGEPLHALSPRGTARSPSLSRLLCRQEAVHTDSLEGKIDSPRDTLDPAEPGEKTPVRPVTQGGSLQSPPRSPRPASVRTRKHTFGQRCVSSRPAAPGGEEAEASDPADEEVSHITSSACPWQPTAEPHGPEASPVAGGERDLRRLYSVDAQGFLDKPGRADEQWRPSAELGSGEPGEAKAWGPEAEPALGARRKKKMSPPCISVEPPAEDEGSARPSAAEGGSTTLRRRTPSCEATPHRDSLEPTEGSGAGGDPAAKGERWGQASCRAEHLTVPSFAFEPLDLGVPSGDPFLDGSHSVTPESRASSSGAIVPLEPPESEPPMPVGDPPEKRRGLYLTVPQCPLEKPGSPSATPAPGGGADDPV", "assay": "Cav3.2 T-type channel inhibitors, synthesized analogs, SAR follow-up, cell-based, synthetic library set 2, HEK293 HH8, Fluo-4 (AID 493023)", "format": "functional"}, "Troponin, cardiac muscle": {"target": "Troponin, cardiac muscle (Homo sapiens, UniProt P19429+P45379+P63316)", "assay": "Fluorescence-based biochemical high throughput dose response assay for activators of the calcium sensitivity of cardiac Regulated Thin Filaments (RTF). [Related pubchem assays (depositor defined):AID493008, AID493018, AID504382, AID504383]", "format": "protein-complex assay"}, "Cytochrome P450 3A4 [7]": {"target": "T3, Cytochrome P450 3A4 (Homo sapiens, UniProt P08684)", "T3 sequence (P08684 whole entry)": "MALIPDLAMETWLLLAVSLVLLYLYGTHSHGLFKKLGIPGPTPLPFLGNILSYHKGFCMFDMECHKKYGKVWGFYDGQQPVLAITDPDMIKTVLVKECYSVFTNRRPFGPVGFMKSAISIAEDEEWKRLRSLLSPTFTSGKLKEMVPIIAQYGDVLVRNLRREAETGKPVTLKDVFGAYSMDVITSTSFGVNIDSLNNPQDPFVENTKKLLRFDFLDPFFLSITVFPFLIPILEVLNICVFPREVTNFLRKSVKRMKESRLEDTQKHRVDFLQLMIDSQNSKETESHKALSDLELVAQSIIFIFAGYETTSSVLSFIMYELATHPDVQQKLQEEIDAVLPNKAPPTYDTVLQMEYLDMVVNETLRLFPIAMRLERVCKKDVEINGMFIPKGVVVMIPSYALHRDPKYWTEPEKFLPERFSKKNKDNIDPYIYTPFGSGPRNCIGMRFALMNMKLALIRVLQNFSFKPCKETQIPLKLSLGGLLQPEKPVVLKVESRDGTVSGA"}, "[8]": {"target": "Type-1 angiotensin II receptor (Homo sapiens, UniProt P30556)", "sequence (P30556 whole entry, the tested form may be a part)": "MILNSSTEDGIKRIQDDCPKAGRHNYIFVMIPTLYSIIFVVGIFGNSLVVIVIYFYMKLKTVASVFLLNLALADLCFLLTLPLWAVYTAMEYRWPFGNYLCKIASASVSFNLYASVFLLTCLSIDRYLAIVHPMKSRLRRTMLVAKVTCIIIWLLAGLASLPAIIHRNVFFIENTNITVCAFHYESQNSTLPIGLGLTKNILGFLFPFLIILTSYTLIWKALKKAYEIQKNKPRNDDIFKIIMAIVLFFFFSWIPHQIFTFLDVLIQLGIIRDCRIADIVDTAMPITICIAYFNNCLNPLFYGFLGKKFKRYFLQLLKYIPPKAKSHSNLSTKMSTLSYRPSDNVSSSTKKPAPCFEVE", "assay": "AT1 receptor agonists, dose response, selectivity assay for APJ receptor agonist project, cell-based, uHTS hits (AID 488865);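 also: beta-arrestin recruitment to AT1 measured by enzyme fragment complementation luminescence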", "format": "functional"}, "Cytochrome P450 2C19": {"target": "Cytochrome P450 2C19 (Homo sapiens, UniProt P33261)", "sequence (P33261 whole entry)": "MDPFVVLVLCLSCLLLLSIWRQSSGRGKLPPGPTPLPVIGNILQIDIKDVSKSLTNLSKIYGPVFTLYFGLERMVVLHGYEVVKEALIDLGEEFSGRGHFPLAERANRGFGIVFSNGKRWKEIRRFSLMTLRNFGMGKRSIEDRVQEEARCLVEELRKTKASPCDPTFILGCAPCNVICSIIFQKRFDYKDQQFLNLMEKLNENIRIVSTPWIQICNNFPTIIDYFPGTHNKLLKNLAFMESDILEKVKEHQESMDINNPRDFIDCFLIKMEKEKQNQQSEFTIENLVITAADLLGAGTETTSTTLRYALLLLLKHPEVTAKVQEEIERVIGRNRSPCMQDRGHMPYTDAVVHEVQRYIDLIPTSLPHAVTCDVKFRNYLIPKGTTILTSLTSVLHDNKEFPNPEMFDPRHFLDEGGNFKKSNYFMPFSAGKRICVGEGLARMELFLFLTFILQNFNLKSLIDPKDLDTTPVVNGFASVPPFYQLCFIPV", "assay": "Cytochrome panel assay with activity outcomes. Panel member name: p450-cyp2c19 Compounds with AC50 equal or less than 10 uM are considered active", "format": "functional", "details": "read-out: AC50"}, "[9]": {"target": "E3 ubiquitin-protein ligase Mdm2/Protein Mdm4 (Homo sapiens, UniProt O15151+Q00987)", "sequence (Q00987 whole entry)": "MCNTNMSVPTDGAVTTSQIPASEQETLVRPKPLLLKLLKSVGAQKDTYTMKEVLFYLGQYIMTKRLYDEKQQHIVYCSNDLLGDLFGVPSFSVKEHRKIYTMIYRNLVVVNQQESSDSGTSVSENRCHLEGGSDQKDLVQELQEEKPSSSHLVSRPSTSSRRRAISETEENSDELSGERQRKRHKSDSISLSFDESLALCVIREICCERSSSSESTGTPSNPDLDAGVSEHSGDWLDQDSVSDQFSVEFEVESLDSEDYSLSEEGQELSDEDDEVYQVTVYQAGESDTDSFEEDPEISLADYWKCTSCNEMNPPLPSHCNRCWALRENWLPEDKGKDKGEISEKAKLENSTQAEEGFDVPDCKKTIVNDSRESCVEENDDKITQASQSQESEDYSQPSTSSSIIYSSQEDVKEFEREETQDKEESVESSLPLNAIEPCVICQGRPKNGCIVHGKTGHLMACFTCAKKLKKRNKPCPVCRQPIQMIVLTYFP", "sequence (O15151 whole entry)": "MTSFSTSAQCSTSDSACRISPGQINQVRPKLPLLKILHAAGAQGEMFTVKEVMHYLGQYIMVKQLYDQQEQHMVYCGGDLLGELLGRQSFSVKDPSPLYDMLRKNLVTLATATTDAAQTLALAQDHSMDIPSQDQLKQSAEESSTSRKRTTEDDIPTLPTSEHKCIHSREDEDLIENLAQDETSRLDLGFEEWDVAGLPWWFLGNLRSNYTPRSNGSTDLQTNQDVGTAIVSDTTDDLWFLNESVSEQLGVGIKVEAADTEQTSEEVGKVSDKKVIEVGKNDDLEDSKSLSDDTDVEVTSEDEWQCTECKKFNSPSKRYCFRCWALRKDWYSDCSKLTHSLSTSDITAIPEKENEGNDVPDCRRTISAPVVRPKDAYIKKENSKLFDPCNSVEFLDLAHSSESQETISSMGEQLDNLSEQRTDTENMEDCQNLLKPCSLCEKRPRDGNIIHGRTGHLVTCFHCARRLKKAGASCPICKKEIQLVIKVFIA", "assay": "Mdm2-MdmX interaction inhibitors, dose response, luminescence detection (AID 504593)", "format": "functional"}, "Cytochrome P450 3A4 [10]": {"target": "T3, Cytochrome P450 3A4", "details": "Potency"}},
  "note": "The source made the active and inactive calls.",
  "data": [
    {"smiles": "O=c1c2ccccc2nc2cc(O)c(-c3ccccc3)nn12", "values": [
      {"measurement": "CC50", "setting": "[1]", "result": "15.4 µM (active)"},
      {"measurement": "IC50", "setting": "cells", "result": "4.34 µM (active)"},
      {"measurement": "CC50", "setting": "[2]", "result": "> 40 µM (active)"}
    ]},
    {"smiles": "COc1ccc(C(CNC(=O)c2cccc(NS(=O)(=O)c3ccc(C)c(F)c3)c2)N2CCCC2)cc1", "note": "(stereo unspecified)", "values": [
      {"measurement": "IC50", "setting": "[3]", "result": "11.7 µM (active)"},
      {"measurement": "IC50", "setting": "cells", "result": "38 µM (active)"},
      {"measurement": "CC50", "setting": "[2]", "result": "> 40 µM (active)"},
      {"measurement": "IC50", "setting": "[4]", "result": "15.8 µM (active)"},
      {"measurement": "IC50", "setting": "Bcl-2-related protein A1", "result": "> 20 µM (inactive)"},
      {"measurement": "IC50", "setting": "[5]", "result": "15.3 µM (active)"}
    ]},
    {"smiles": "CC(C)(C)CCN1CC2CCC(NC(=O)c3ccc(Cl)cc3Cl)C2C1", "note": "(stereo unspecified)", "values": [
      {"measurement": "EC50", "setting": "[6]", "result": "0.36 µM (active)"}
    ]},
    {"smiles": "O=C(COC(=O)c1ccc(O)cc1)Nc1ccc2c(c1)OCCO2", "values": [
      {"measurement": "EC50", "setting": "Troponin, cardiac muscle", "result": "> 71.5 µM (inactive)"}
    ]},
    {"smiles": "Clc1ccccc1CSc1nnc(-c2ccncc2)o1", "values": [
      {"measurement": "AC50", "setting": "Cytochrome P450 3A4 [7]", "result": "20 µM (inconclusive)"},
      {"measurement": "EC50", "setting": "[8]", "result": "> 100 µM (inactive)"},
      {"measurement": "AC50", "setting": "Cytochrome P450 2C19", "result": "0.126 µM (inconclusive)"}
    ]},
    {"smiles": "CC(C)c1cccc(=O)c(O)c1", "note": "[HINOKITIOL]", "values": [
      {"measurement": "IC50", "setting": "[9]", "result": "3.58 µM (active)"},
      {"measurement": "AC50", "setting": "Cytochrome P450 3A4 [10]", "result": "0.631 µM (inconclusive)"}
    ]}
  ]
}
